Entries after “also recorded” stand apart in the source; their conditions may differ.
How the values were obtained:
[1] = tested on: antibodies present in IFA sero-positive sera from patients infected with Bartonella henselae (IgG); test: IgG ELISA with synthetic polypeptides of 17-kDa protein as coating antigen; type: binding, human; conditions: for antibody binding activity in ELISA: IFA sero-positive sera, mostly relative to peptide 3C
Text: A panel of 47 human sera, including 27 IFA positive and 20 WA negative sera, was used. ROC analysis was used to analysis the binding activity via OD450nm (FIGS. 19 and 21). AUCs for peptide 3C, 3B, 3D, and 3E were 0.9, 0.5, 0.5, and 0.8 respectively (FIGS. 19 and 21). […] Thus, the antibody recognition site seems to be present on peptide 3C (but not peptides 3B and 3D).
We adopted an IgG ELISA assay and evaluated the binding activity of the modified peptides towards IgG. The ELISA procedure involves: (i) coating 96-well micro-titer plates with modified peptides at varying concentrations (e.g., 0.2-5 μg/ml) at 4° C. overnight; (ii) adding 5% skim milk to block non-specific binding; (iii) adding patients' sera to allow formation of antibody-antigen complex; (iv) detecting the antibody-antigen complex. IFA sero-positive sera served as positive controls and IFA sero-negative sera served as negative controls. Detection of antibody-antigen complex was performed with the use of horseradish peroxidase.
A panel of 47 human sera was used in an ELISA assay to evaluate the sensitivity and specificity for synthetic polypeptides of 17-kDa protein. This panel contains 27 IFA positive sera and 20 IFA negative sera. Synthetic polypeptides used include amino acid substitution (Peptide 3C-CS3), addition (Peptide 3C-Ext2), and deletion (Peptide 3C-Del). Antibody binding was reflected by OD450nm, which was analyzed by Interactive dot diagram in statistic software MedCalc.

[2] = tested on: antibodies against Bartonella henselae in IFA sero-positive patient sera (IgG); test: IgG ELISA with recombinant 17-kDa protein or Fragment 3 as coating antigen; type: binding, human
Experimental: In the ELISA assay, purified Fragment 3 protein was diluted in coating buffer to a final concentration of 250 ng/ml. Antigen was adhered to 96-well plate by applying 100 μl this solution per well and incubated at 4° C. for 18 hours. Uncoated antigen was removed by washing the plate three times with PBST wash buffer. After washing, post-coating was done with 300 μl blocking reagent General Blocker BB1 in each well for 1 hour at 22° C. Primary polyclonal antibody from 100 μl serum in 1:100 sample dilution buffer each well was allowed to react with coated antigen for 1 hour at 22° C. After five wash steps with PBST wash buffer, each well was incubated with […] peroxidase conjugated goat anti-human IgG (KPL, 1:20,000 from 1 mg/ml stock in sample dilute buffer) for 30 minutes at 22° C. The excess amount of secondary antibody was also removed by five wash steps with PBST wash buffer. The reaction were visualized by adding 100 μl substrate 3,3′5,5′-Tetramethylbenzidine solution and incubated at 22° C. for 15 minutes. The reaction was terminated by adding 100 μl 0.5 M H2SO4 per well before taking OD450nm measurement. Receiver operating characteristic curve (ROC) analysis was calculated with associated 95% confidence interval using a binomial distribution with the MedCalc program.
In this series of studies, a panel containing 12 IFA positive serum samples and 6 IFA negative serum samples was evaluated by ELISA using the respective antigen as the coating antigen. FIG. 15 presents the results of this ELISA analysis. […] Neither antigen bound antibody in sample #3508.
To further characterize the comparative abilities of recombinant Fragment 3 and the full length protein to bind antibodies to Bartonella henselae, a broader panel of 47 serum samples (27 IFA positive serum samples and 20 IFA negative serum samples) was analyzed by ELISA. The raw data was analyzed with ROC curve comparison in statistic software MedCalc.
A panel of 47 human sera was used in an IgG ELISA to evaluate the sensitivity and specificity for Fragment 3 mutants. The raw data was analyzed by interactive dot diagram assay (FIGS. 31 and 32).
Purified protein was diluted in coating buffer to a final concentration 250 ng/ml. Antigen was adhered to 96-well plate by applying 100 μl above prepared solution per well and incubate at 4° C. for 18 hours. We removed uncoated antigen by washing plate three times with PBST wash buffer. After washing, post-coating was done with 300 μl blocking reagent General Blocker BB1 each well for 1 hour at 22° C. Then primary polyclonal antibody from 100 μl serum in 1:100 sample dilution buffer each well was allowed to react with coated antigen for 1 hour at 22° C. After five times washing with PBST wash buffer, we incubated each well with 100 μl peroxidase conjugated goat anti-human IgG (KPL, 1:20,000 from 1 mg/ml stock in sample dilute buffer) for 30 minutes at 22° C. The excess amount of secondary antibody was also removed by five times washing with PBST wash buffer. The reaction were visualized by adding 100 μl substrate 3,3′5,5′-Tetramethylbenzidine Solution and incubated at 22° C. for 15 minutes. In the end, we terminated reaction with 100 μl 0.5 M H2SO4 per well before taking OD450nm measurement. Receiver operating characteristic curve (ROC) analysis was calculated with associated 95% confidence interval using a binomial distribution with MedCalc program.

[3] = panel study, 47 human sera (27 IFA positive, 20 IFA negative), interactive dot diagram
[4] = ELISA, panel of 47 human sera (27 IFA positive, 20 IFA negative), ROC analysis of OD450nm

Molecule: EQTQKKHEDLQKQLKEKLEKSDVRL (listed as Bartonella henselae) [Peptide 3C-Ext2, peptide 3C with addition of 7 AA at N-terminus]
- antibody binding activity in ELISA [1]: same binding activity as compared to that of peptide 3C; also recorded: identical binding activity as compared to that of peptide 3C
- sensitivity [1, 3]: ~80%
- specificity [1, 3]: ~90%

Molecule: QKKHEDLQKQLKEKLEKSDVRL (listed as Bartonella henselae) [Peptide 3C-Ext1, peptide 3C with addition of 4 AA at N-terminus]
- antibody binding activity in ELISA [1]: same binding activity as compared to that of peptide 3C

Molecule: LKLELELVQDSDKQEKRK (listed as Bartonella henselae) [Peptide 3C-RD, peptide 3C with substitution of the entire 18 AA]
- antibody binding activity in ELISA [1]: no binding activity; also recorded: fail to bind antibody
- sensitivity [1, 3]: ~11%
- specificity [1, 3]: 0%

Molecule: EEQTQKKHEDLQKQLK (listed as Bartonella henselae) [Peptide 3D, synthetic polypeptide, aa 123-138 of 17-kDa protein]
- AUC [1, 4]: 0.5
- sensitivity [1, 4]: 85.2%
- specificity [1, 4]: 25.0%

Molecule: DDLQKQLKEKLEKSDVRL (listed as Bartonella henselae) [Peptide 3C-CS1, peptide 3C with conservative substitution E to D]
- antibody binding activity in ELISA [1]: identical binding activity as compared to that of peptide 3C

Molecule: EDLQKQVKEKLEKSDVRL (listed as Bartonella henselae) [Peptide 3C-CS3, peptide 3C with conservative substitution L to V]
- antibody binding activity in ELISA [1]: same binding activity; also recorded: identical binding activity as compared to that of peptide 3C
- sensitivity [1, 3]: ~80%
- specificity [1, 3]: ~90%

Molecule: QAKDTKTKEELREEQTQK (listed as Bartonella henselae) [Peptide 3B, synthetic polypeptide, aa 111-128 of 17-kDa protein]
- AUC [1, 4]: 0.5
- sensitivity [1, 4]: 33.3%
- specificity [1, 4]: 90.0%

Molecule: ED_QKQLKEKLEKSDVRL (EDQKQLKEKLEKSDVRL; listed as Bartonella henselae) [Peptide 3C-Del, peptide 3C with leucine at third position from N-terminus deleted]
- antibody binding activity in ELISA [1]: did not alter the binding activity; also recorded: identical binding activity as compared to that of peptide 3C
- sensitivity [1, 3]: ~80%
- specificity [1, 3]: ~90%

Molecule: EDLQKQLKSDKEVKLRLE (listed as Bartonella henselae) [Peptide 3C-RD2, peptide 3C with substitution of the last 10 AA at C-terminus]
- antibody binding activity in ELISA [1]: completed abrogated the binding activity; also recorded: fail to bind antibody
- sensitivity [1, 3]: ~11%
- specificity [1, 3]: 0%

Molecule: LKQDEQKLEKLEKSDVRL (listed as Bartonella henselae) [Peptide 3C-RD1, peptide 3C with substitution of the first 8 AA at N-terminus]
- antibody binding activity in ELISA [1]: same binding activity as compared to that of peptide 3C

Molecule: EDLQKQLKEKLEKSDVRL (listed as Bartonella henselae) [Peptide 3C, synthetic polypeptide, aa 131-148 of 17-kDa protein]
- AUC [1, 4]: 0.9
- sensitivity [1, 4]: 77.8%
- specificity [1, 4]: 88.2%
- antibody binding activity in ELISA [1]: possesses the antibody binding activity; also recorded: dose-dependent increase in binding towards sero-positive serum
- antibody binding activity in ELISA ([1]; listed as SEQ ID NO: 22): possesses the ability to bind to antibodies present in IFA positive sera

Molecule: EDIQKQLKEKLEKSDVRL (listed as Bartonella henselae) [Peptide 3C-CS2, peptide 3C with conservative substitution L to I]
- antibody binding activity in ELISA [1]: same binding activity

Molecule: EKLEKSDVRL (listed as Bartonella henselae) [Peptide 3E, synthetic polypeptide, aa 139-148 of 17-kDa protein]
- AUC [1, 4]: 0.8
- sensitivity [1, 4]: 40.7%
- specificity [1, 4]: 88.2%
- antibody binding activity in ELISA [1]: not sufficient to complete antibody binding
- antibody binding activity in ELISA ([1]; listed as SEQ ID NO: 33): by itself insufficient to render the ability to bind antibodies present in IFA positive sera

B1: 17-kDa Fragment 3: His-tagged recombinant fragment of 17-kDa protein, aa 77-148, glutamine instead of arginine at position 147 (protein, listed as Bartonella henselae)
chain: KTKPEQLQALQIELTLLQAQLQADTLKIQSLAMIQAKDTKTKEELREEQTQKKHEDLQKQLKEKLEKSDVQL
modifications: His tag
- area under ROC curve (AUC) ([2]; IgG ELISA, panel of 47 serum samples (27 IFA positive, 20 IFA negative), MedCalc ROC): 0.897
- ability to bind antibodies in IgG ELISA ([2]; coating antigen, IFA positive vs IFA negative sera): binds to antibodies against Bartonella henselae; also recorded: identical, if not better, ability to bind antibodies when compared with the full-length 17-kDa protein; also recorded: better sensitivity in detecting positive serum than the full length antigen
- reaction with IFA negative serum samples ([2]; panel of 12 IFA positive and 6 IFA negative serum samples): Neither antigen reacted with any of the IFA negative serum samples

Source: patent publication US8283439B2, “Recombinant fragments and synthetic peptides of 17-kDa polypeptide useful in detecting Bartonella henselae” (Medical Diagnostic Laboratories L.L.C., priority 2008, dated 2012)
